{"source": "paper PMC7774954", "about": "“Interactomic affinity profiling by holdup assay: Acetylation and distal residues impact the PDZome-binding specificity of PTEN phosphatase” (PLoS ONE, 2020)", "key": {"SCRIB-3": {"biological_target": "T1, SCRIB-3 (Homo sapiens, UniProt Q14160)", "T1 construct": "Representative holdup data recorded for three PDZ domains (MAST2-1, HTRA1-1, SCRIB-3); made in house; host or cells: E. coli", "T1 sequence (Q14160 1004-1093 limits assumed)": "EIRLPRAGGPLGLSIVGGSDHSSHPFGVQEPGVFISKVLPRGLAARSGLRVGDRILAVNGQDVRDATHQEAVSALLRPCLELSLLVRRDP", "assay": "Competitive FP, SCRIB-3", "assay_type": "binding", "conditions": "SCRIB-3 + 50 nM f16E6", "protocol": "Protein concentrations were determined by far-UV absorption spectroscopy. A detailed protocol has been published previously."}, "LMO7-1": {"tested_on": "LMO7-1", "assay": "Holdup assay, LMO7-1", "assay_type": "binding, human"}, "GRIP2-2": {"tested_on": "GRIP2-2", "assay": "Holdup assay, GRIP2-2", "assay_type": "binding, human"}, "APBA2-1": {"tested_on": "APBA2-1", "assay": "Holdup assay, APBA2-1", "assay_type": "binding, human"}, "APBA1-2": {"biological_target": "APBA1-2 (Homo sapiens, UniProt Q02410)", "sequence (Q02410 747-822)": "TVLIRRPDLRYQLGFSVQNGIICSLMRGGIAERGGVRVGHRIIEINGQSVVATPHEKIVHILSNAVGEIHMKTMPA", "assay": "Holdup assay, APBA1-2", "assay_type": "binding"}, "CNKSR2-1": {"tested_on": "CNKSR2-1", "assay": "Holdup assay, CNKSR2-1", "assay_type": "binding, human"}, "GRIP2-6": {"tested_on": "GRIP2-6", "assay": "Holdup assay, GRIP2-6", "assay_type": "binding, human"}, "GIPC3-1": {"tested_on": "GIPC3-1", "assay": "Holdup assay, GIPC3-1", "assay_type": "binding, human"}, "MAGI1-4": {"tested_on": "MAGI1-4", "assay": "Holdup assay, MAGI1-4", "assay_type": "binding, human"}, "CNKSR1-1": {"biological_target": "T2, CNKSR1-1 (Homo sapiens, UniProt Q969H4)", "T2 sequence (Q969H4 1-720)": "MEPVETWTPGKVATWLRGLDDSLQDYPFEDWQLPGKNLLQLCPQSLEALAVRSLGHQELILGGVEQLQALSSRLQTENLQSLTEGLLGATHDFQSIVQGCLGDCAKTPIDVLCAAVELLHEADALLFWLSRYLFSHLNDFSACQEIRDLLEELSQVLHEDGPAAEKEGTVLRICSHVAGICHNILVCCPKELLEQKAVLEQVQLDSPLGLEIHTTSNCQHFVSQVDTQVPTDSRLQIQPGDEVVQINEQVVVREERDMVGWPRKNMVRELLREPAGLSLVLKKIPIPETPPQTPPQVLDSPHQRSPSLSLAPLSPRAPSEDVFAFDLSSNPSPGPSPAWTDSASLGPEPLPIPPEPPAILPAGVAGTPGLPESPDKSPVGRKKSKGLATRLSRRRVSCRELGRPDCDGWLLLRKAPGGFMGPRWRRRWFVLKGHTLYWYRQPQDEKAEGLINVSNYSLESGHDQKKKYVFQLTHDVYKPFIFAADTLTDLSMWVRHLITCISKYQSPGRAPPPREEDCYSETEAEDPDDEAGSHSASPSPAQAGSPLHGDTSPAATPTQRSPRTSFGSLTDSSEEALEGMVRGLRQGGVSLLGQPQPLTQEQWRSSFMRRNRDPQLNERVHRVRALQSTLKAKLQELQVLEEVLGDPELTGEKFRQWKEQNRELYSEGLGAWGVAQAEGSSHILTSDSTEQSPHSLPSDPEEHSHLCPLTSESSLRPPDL", "assay": "Holdup assay, CNKSR1-1", "assay_type": "binding"}, "DLG2-3": {"tested_on": "DLG2-3", "assay": "Holdup assay, DLG2-3", "assay_type": "binding, human"}, "GRID2IP-2": {"biological_target": "GRID2IP-2 (Homo sapiens, UniProt A4D2P6)", "sequence (A4D2P6 whole entry)": "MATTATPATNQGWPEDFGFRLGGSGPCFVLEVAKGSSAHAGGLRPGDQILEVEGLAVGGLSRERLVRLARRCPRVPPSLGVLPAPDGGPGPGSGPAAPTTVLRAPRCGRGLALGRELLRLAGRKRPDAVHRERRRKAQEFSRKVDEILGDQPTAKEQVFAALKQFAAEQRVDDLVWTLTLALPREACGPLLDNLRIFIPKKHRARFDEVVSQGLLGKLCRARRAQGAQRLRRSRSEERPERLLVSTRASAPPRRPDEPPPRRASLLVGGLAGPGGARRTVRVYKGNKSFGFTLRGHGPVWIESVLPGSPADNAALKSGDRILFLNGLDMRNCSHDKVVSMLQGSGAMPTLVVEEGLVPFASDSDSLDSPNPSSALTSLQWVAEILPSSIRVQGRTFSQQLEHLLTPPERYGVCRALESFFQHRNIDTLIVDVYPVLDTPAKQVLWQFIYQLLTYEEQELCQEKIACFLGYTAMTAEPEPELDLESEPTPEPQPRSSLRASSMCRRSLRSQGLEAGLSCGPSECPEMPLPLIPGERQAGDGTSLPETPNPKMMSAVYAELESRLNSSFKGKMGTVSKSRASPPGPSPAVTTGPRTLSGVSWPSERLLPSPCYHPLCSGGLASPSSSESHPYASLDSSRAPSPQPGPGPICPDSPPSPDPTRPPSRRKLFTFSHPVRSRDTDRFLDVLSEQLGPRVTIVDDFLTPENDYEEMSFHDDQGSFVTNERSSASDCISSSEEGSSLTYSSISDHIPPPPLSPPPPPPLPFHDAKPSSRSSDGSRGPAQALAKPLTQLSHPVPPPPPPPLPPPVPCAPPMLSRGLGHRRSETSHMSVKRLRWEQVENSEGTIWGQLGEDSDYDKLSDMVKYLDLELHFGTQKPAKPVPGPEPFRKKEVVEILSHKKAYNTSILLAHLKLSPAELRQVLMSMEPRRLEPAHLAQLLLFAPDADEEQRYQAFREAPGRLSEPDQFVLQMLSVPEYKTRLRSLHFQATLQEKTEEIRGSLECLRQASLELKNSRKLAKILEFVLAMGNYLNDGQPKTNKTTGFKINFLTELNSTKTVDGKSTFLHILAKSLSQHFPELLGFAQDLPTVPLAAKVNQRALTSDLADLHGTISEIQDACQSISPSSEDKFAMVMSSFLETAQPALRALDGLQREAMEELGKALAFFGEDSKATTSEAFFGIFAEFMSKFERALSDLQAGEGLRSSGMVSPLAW", "assay": "Holdup assay, GRID2IP-2", "assay_type": "binding"}, "DEPTOR-1": {"tested_on": "DEPTOR-1", "assay": "Holdup assay, DEPTOR-1", "assay_type": "binding, human"}, "LNX1-4": {"biological_target": "LNX1-4 (Homo sapiens, UniProt Q8TBB1)", "sequence (Q8TBB1 638-723)": "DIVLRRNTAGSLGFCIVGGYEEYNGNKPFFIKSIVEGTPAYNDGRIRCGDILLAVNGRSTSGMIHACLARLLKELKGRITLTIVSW", "assay": "Holdup assay, LNX1-4", "assay_type": "binding"}, "LNX1-1": {"tested_on": "LNX1-1", "assay": "Holdup assay, LNX1-1", "assay_type": "binding, human"}, "AHNAK1-1": {"tested_on": "AHNAK1-1", "assay": "Holdup assay, AHNAK1-1", "assay_type": "binding, human"}}, "note": "pKd: −log10 of the molar value. *1 amine or outer side, *2 acyl side, *3 side chain or, on linkers, in order; H or OH if unused. Where a SMILES comes first, the peptide text is derived from it. The star is where a group is joined. X1 = O=C(CCCC[C@@H]1SC[C@@H]2NC(=O)N[C@@H]21)NCCCOCCOCCOCCCN*; Suc = O=C(CCC(=O)[*:2])[*:1]"}
{"molecule": "CC[C@H](C)[C@H](NC(=O)[C@H](CCC(N)=O)NC(=O)[C@@H](NC(=O)[C@H](Cc1c[nH]cn1)NC(=O)[C@H](CCC(N)=O)NC(=O)[C@H](CC(=O)O)NC(=O)[C@H](CCC(=O)O)NC(=O)[C@H](CC(=O)O)NC(=O)CCC(=O)NCCCOCCOCCOCCCNC(=O)CCCC[C@@H]1SC[C@@H]2NC(=O)N[C@@H]21)[C@@H](C)O)C(=O)N[C@H](C(=O)N[C@@H](CCCCN)C(=O)N[C@H](C(=O)O)C(C)C)[C@@H](C)O", "note": "[PTEN_11]", "values": [{"measurement": "binding by holdup and competitive FP (in words)", "setting": "SCRIB-3", "result": "non-binding"}, {"measurement": "BI", "setting": "LMO7-1", "result": -0.045}, {"measurement": "LogKD", "setting": "LMO7-1", "result": 3.519}]}
{"molecule": "CC[C@H](C)[C@H](NC(=O)[C@H](CCC(N)=O)NC(=O)[C@@H](NC(=O)[C@H](Cc1c[nH]cn1)NC(=O)[C@H](CCC(N)=O)NC(=O)[C@H](CC(=O)O)NC(=O)[C@H](CCC(=O)O)NC(=O)[C@H](CC(=O)O)NC(=O)[C@H](Cc1ccccc1)NC(=O)[C@@H]1CCCN1C(=O)CCC(=O)NCCCOCCOCCOCCCNC(=O)CCCC[C@@H]1SC[C@@H]2NC(=O)N[C@@H]21)[C@@H](C)O)C(=O)N[C@H](C(=O)N[C@@H](CCCCN)C(=O)N[C@H](C(=O)O)C(C)C)[C@@H](C)O", "note": "[PTEN_13] ({X1-Suc}-PFDEDQHTQITKV-OH)", "values": [{"measurement": "BI", "setting": "GRIP2-2", "result": -0.021}, {"measurement": "BI", "setting": "APBA2-1", "result": 0.029}, {"measurement": "BI", "setting": "APBA1-2", "result": 0.184}, {"measurement": "BI", "setting": "CNKSR2-1", "result": -0.021}, {"measurement": "BI", "setting": "GRIP2-6", "result": -0.013}, {"measurement": "BI", "setting": "GIPC3-1", "result": 0.032}, {"measurement": "BI", "setting": "MAGI1-4", "result": 0.094}, {"measurement": "BI", "setting": "CNKSR1-1", "result": -0.076}, {"measurement": "LogKD", "setting": "CNKSR1-1", "result": 3.826}, {"measurement": "BI", "setting": "DLG2-3", "result": 0.083}, {"measurement": "BI", "setting": "GRID2IP-2", "result": -0.012}, {"measurement": "LogKD", "setting": "GRID2IP-2", "result": 3.826}, {"measurement": "BI", "setting": "DEPTOR-1", "result": -0.005}, {"measurement": "BI", "setting": "LNX1-4", "result": 0.378}, {"measurement": "pKd", "setting": "LNX1-4", "result": 4.59}, {"measurement": "BI", "setting": "LNX1-1", "result": 0.021}, {"measurement": "BI", "setting": "AHNAK1-1", "result": -0.053}]}
{"molecule": "CC[C@H](C)[C@H](NC(=O)[C@H](CCC(N)=O)NC(=O)[C@@H](NC(=O)[C@H](Cc1c[nH]cn1)NC(=O)[C@H](CCC(N)=O)NC(=O)[C@H](CC(=O)O)NC(=O)[C@H](CCC(=O)O)NC(=O)[C@H](CC(=O)O)NC(=O)CCC(=O)NCCCOCCOCCOCCCNC(=O)CCCC[C@@H]1SC[C@@H]2NC(=O)N[C@@H]21)[C@@H](C)O)C(=O)N[C@H](C(=O)N[C@@H](CCCCNC(C)=O)C(=O)N[C@H](C(=O)O)C(C)C)[C@@H](C)O", "note": "[PTEN_Ac]", "values": [{"measurement": "BI", "setting": "APBA2-1", "result": -0.029}, {"measurement": "LogKD", "setting": "APBA2-1", "result": 3.605}, {"measurement": "BI", "setting": "GRIP2-6", "result": -0.084}, {"measurement": "LogKD", "setting": "GRIP2-6", "result": 3.605}, {"measurement": "BI", "setting": "CNKSR1-1", "result": 0.116}, {"measurement": "BI", "setting": "DEPTOR-1", "result": -0.046}, {"measurement": "LogKD", "setting": "DEPTOR-1", "result": 3.605}]}
